Assay [1] has as its target T1, binding of CTLD(4-7)-Fc to FVIII-BDD (UniProt P00451+Q61830, DEL763-1656).
T1 construct: CTLD(4-7)-Fc a gift of Dr L. Martinez-Pomares
T1 sequence (P00451 with tags, fused parts or gaps DEL763-1656 limits assumed): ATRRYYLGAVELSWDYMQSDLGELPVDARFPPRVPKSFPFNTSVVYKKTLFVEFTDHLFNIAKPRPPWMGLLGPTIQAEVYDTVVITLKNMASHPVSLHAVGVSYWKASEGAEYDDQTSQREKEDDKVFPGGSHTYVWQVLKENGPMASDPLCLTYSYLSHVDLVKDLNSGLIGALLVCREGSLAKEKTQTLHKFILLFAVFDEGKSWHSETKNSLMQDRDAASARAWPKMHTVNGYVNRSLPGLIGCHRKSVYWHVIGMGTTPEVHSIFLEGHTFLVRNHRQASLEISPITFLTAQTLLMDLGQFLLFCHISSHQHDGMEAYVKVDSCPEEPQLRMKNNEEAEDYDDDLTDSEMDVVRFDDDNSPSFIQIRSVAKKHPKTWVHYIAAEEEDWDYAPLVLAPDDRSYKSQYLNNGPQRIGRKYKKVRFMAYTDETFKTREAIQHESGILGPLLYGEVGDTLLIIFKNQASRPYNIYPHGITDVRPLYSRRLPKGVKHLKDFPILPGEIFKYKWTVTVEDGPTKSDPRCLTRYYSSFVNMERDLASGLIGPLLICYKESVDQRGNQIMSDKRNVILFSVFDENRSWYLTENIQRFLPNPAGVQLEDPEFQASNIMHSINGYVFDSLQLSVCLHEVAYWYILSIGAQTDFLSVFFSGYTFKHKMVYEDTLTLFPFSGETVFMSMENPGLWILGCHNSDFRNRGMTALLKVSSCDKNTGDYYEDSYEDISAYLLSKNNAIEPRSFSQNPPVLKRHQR
T1 sequence (P00451 1668-2351 limits assumed): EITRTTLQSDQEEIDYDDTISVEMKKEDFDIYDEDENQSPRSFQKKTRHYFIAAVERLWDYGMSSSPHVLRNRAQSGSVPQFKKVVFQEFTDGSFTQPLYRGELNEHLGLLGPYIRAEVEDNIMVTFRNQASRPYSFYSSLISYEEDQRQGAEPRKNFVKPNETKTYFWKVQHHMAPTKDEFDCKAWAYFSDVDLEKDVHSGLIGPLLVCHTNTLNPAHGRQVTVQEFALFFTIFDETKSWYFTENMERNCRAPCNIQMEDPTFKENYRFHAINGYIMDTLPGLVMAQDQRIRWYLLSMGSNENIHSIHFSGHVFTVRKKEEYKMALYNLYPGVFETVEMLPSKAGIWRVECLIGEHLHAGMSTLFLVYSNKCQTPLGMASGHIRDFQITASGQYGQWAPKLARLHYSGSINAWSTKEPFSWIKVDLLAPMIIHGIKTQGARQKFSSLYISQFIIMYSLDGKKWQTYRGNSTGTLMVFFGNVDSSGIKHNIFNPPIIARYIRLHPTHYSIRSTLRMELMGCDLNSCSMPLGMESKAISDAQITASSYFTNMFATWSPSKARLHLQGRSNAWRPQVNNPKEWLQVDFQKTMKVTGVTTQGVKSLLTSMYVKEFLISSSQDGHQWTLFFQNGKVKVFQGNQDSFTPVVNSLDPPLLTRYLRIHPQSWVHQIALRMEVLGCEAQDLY
T1 sequence (Q61830 20-1456): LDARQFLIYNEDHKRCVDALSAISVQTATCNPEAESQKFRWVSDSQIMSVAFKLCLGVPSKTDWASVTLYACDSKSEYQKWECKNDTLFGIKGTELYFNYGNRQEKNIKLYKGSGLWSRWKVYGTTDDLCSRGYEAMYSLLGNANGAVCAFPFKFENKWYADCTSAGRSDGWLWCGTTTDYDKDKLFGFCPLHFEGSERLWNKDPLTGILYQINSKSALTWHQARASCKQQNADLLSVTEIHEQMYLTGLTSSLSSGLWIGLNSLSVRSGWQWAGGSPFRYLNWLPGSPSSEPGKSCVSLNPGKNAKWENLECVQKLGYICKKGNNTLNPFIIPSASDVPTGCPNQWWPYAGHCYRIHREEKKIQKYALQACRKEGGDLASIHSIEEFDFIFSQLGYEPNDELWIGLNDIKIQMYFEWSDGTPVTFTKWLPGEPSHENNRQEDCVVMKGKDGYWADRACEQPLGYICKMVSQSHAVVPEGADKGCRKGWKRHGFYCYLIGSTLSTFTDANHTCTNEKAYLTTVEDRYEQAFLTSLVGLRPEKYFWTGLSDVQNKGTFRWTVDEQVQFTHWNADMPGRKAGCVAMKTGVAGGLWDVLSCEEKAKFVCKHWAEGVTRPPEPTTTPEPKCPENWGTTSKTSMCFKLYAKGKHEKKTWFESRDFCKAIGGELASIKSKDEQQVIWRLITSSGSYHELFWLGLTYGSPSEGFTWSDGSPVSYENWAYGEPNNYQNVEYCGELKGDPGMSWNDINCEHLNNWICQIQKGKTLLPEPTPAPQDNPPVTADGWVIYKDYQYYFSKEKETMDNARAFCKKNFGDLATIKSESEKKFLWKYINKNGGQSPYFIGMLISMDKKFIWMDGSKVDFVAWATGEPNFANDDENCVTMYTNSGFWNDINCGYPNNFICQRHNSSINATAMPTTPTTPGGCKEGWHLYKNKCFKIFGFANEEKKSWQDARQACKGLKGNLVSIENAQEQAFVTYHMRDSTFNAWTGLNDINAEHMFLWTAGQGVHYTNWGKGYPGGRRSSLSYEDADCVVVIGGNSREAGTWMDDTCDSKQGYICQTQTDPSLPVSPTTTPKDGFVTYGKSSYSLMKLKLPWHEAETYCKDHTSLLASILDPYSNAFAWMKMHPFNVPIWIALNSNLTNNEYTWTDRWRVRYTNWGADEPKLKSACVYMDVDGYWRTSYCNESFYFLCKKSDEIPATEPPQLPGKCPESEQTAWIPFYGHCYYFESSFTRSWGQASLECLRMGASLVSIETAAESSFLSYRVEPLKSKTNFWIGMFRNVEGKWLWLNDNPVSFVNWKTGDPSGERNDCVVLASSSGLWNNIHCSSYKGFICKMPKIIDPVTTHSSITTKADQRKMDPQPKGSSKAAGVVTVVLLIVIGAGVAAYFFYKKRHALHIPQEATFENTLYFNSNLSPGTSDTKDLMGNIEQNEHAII
Kind of assay: ELISA: influence of VWF on binding of CTLD(4-7)-Fc to immobilized FVIII-BDD. To be noted: soluble VWF in a VWF:FVIII ratio excess; FIG. 9. On the procedure: ELISA plates are coated with FVIII-BDD (5.56 μg/ml, 0.033 μM). VWF (0 to 1 μM) is incubated with 10 μg/ml of the construct CTLD(4-7)-Fc for 30 min at room temperature and added to immobilized FVIII-BDD.

Assay [2] deals with human DCs derived from monocytes. As to the kind of experiment: In vitro internalization of fluorescent ligands by human DCs derived from monocytes (flow cytometry). The assay is classed as cell-based. On the procedure:
DCs were prepared from monocytes as described previously (29) with a change in the culture media. Briefly, mononucleated cells were isolated from heparinized leukoplatelet layers (“buffy coats”) from healthy adult donors by adhesion on plastic cell culture dishes in RPMI 1640 medium supplemented with 10% human AB serum, glutamine and antibiotics for 60 minutes. Non-adhering cells were removed by 3 gentle washings with the medium. The adhering monocytes were cultured in X-VIVO 15 medium (Cambrex Bio Sciences, Paris, France) supplemented with 1% human AB serum and antibiotics and in the presence of 500 IU/ml of recombinant human interleukin-4 (rhIL-4), R&D Systems (Lille, France) and 1,000 IU/ml of recombinant human granulocyte macrophage colony-stimulating factor (rhGM-CSF), Immunotools (Friesoythe, Germany). Half of the medium, comprising all the supplements, was replaced every two days. After culture for 5 days, the non-adhering cells and those with little adhesion, corresponding to the fraction enriched in DC, were harvested, washed and used for subsequent experiments.
Whole recombinant human FVIII (1,000 IU, Kogenate, Bayer) or B domain-deleted recombinant human FVIII (FVIII-BDD) (1,000 IU, Refacto, Wyeth) were solubilized in water and dialyzed against bicarbonate buffer (pH 9.2) containing CaCl2, 5 mM at 4° C., followed by coupling to fluorescein 5-isothiocyanate (isomer I, Sigma-Aldrich, Saint Quentin Fallavier, France) for 7-8 hours at 4° C. The labelled FVIII was then dialyzed against RPMI 1640 medium to remove non-coupled FITC. The FVIII-FITC was quantified by the Bradford method using bovine serum albumin as the standard.
The DCs obtained in Example 1 (0.4×10^5 cells/well of a 96-well plate with 100 μl/well) were incubated with various doses (0.029, 0.057, 0.143 and 0.358 μM) of fluorescent conjugated ligands (FVIII-FITC, BDD-FVIII-FITC) obtained in Example 2 in X-VIVO medium for 0, 15, 60 and 120 min at 4° C. or at 37° C. After the incubation period, the cells were washed with cold PBS and analyzed by flow cytometry. To investigate the involvement of receptors in the internalization, the cells were preincubated for 30 min at 37° C. with […] and 1 mg/ml of mannan (Sigma-Aldrich, Saint Quentin Fallavier, France) before the addition of ligands conjugated to fluorescein. In addition to FVIII-FITC and FVIII-BDD-FITC, human α2-macroglobulin-MA (α2M) conjugated to FITC from Biomac (Leipzig, Germany), dextran-FITC (molecular weight 40,000) from Molecular Probes (Leiden, The Netherlands) and Lucifer yellow (LY-CH) from Sigma-Aldrich were used. The investigation of the internalization of FVIII was also carried out in the presence of 20 μg/ml of anti-mannose receptor monoclonal antibody (PAM-1, isotype IgG1) or anti-DC-SIGN monoclonal antibody ((AZN-D1, isotype IgG1) or mouse IgGλ,k conjugated to PE-Cy (BD Pharmingen, France). To investigate whether DC-SIGN is involved in the endocytosis of FVIII, the B lymphocyte line HD-420 transformed by wild-type EBV and transfected with DC-SIGN or not transfected was incubated with various concentrations of FVIII-FITC (0, 0.036, 0.072 and 0.143 μM) for 2 hours in RPMI 1640 medium supplemented with 10% FCS (foetal calf serum) and antibiotics. The analysis was carried out as for the DCs.

The test system of assay [3] is D9E9 (T cell clone specific for FVIII). As to the kind of experiment: In vitro activation of FVIII-specific T cell clone D9E9 (IFN-gamma production). It is filed as cell-based, human. To be noted: antigen presented by DCs; IFNγ production; FIG. 4b. On the procedure: After washing, the DCs of Example 1 were resuspended in DMEM:F12 (1:1) medium containing 10% FCS and 10,000 DCs were introduced into each well of a 96-well cell culture plate with a round base. After incubation with mannan (1 mg/ml) in each well for 30 min, the DCs were cultured with 5,000 D9E9 (T cell clone specific for FVIII) in DMEM:F12 (1:1) medium containing 10% FCS and 20 U/ml of rhIL-2 with various doses of whole FVIII or FVIII-BDD (10, 8, 6, 4, 2 μg/ml) for 20 hours at 37° C. Like the D9E9 cells, the LE2E9 and BO2C11 lines of B cells transformed by EBV were cultured in the presence of 10 μg/ml of whole FVIII or FVIII-BDD. The control conditions were maintained in the absence of FVIII, D9E9 or DCs. As a negative control, hrFIX (Benefix, Baxter) was incubated with the cells at isomolar concentrations of FVIII. The supernatants were harvested at the end of the incubation period and tested for their production of IFNγ using the human IFN-γ Duo Set (DY285, R&D Systems) in accordance with the manufacturer's instructions.

The mark [4] stands for this setting: cells preincubated with 5 mM EDTA.

For the molecule “VWF: von Willebrand factor (Willefectin, LFB)”, in assay [1], the “inhibition of interaction of CTLD(4-7)-Fc with immobilized FVIII” value amounted to 43%. Consider `O=C(O)CN(CCN(CC(=O)O)CC(=O)O)CC(=O)O` [EDTA, reference compound], for which, in assay [2] (setting [4]), the “inhibition of internalization of FVIII-BDD by immature DCs” value came to 62.4±11.4% and the “inhibition of internalization of whole FVIII by immature DCs” value turned out to be 58.1±11.1%.

Regarding “FIX: hrFIX (Benefix, Baxter), negative control”, the “activation of D9E9 cells” value in assay [3] is recorded as “absence of proliferation”.

For `O=C[C@H](O)[C@@H](O)[C@@H](O)[C@H](O)CO` [D-galactose, reference compound], the “reduction of internalization of FVIII” value in assay [2] (D-galactose, independently of presence or absence of domain B) was “did not significantly reduce”.

B1: RAP: receptor-associated protein of 38 kD, blocks endocytosis of ligands by LDL receptor family members such as CD91/LRP (protein, UniProt P30533 35-357, looked up)
Alpha-2-macroglobulin …: YSREKNQPKPSPKRESGEEFRMEKLNQLWEKAQRLHLPPVRLAELHADLKIQERDELAWKKLKLDGLDEDGEKEARLIRNLNVILAKYGLDGKKDARQVTSNSLSGTQEDGLDDPRLEKLWHKAKTSGKFSGEELDKLWREFLHHKEKVHEYNVLLETLSRTEEIHENVISPSDLSDIKGSVLHSRHTELKEKLRSINQGLDRLRRVSHQGYSTEAEFEEPRVIDLWDLAQSANLTDKELEAFREELKHFEAKIEKHNHYQKQLEIAHEKLRHAESVGDGERVSRSREKHALLEGRTKELGYTVKKHLQDLSGRISRARHNEL
Turning to B1, in assay [2] (excess of RAP), the “prevention of endocytosis of FVIII by the DCs” value is recorded as “did not allow the endocytosis of FVIII by the DCs to be prevented”. Further, in assay [2] (excess of RAP or mannan, FIG. 2f), the “inhibition of internalization of α2M” value is “inhibited completely”.

The values above are taken from patent US20090317373A1, “Inhibition of the Anti-FVIII Immune Response” (Institut National De La Sante Et De La Recherche Medicale, priority 2005, published 2009).
